# Measurements from patent US20110296540A1, “ASSAY FOR SCREENING ANTIDEPRESSANTS” (priority 2008, published 2011).
# Experiments:
# [1] = system: β-arrestin 2 knock out mice (S129/Sv×C57BL/6); assay: Open Field paradigm in β-arrestin 2 knock out mice and littermates; format: in vivo
# From the text: Adult male C57BL/6Ntac mice were purchased from Taconic Farms (Germantown, N.Y., USA; Lille Skensved, Denmark). Male heterozygous β-arrestin 2+/− and heterozygous female mutant β-arrestin+/− mice (age 4-6 months, 25-30 g body weight) were bred on a mixed S129/Sv×C57BL/6 genetic background raised at the animal facility of Columbia University (New York, USA). […] Food and water were provided ad libitum. Behavioral testing occurred during the light phase between 0700 and 1900 for the OF, NSF and FST, splash test.
# For all the studies, control mice received β-CD.
# Motor activity was quantified in four Plexiglas open field boxes 43 times 43 cm2 (MED Associates, Georgia, Vt.). Two sets of 16 pulse-modulated infrared photobeams were placed on opposite walls 2.5-cm apart to record x-y ambulatory movements. Activity chambers were computer interfaced for data sampling at 100-ms resolution. The computer defined grid lines that divided each Open Field into center and surround regions, with each of four lines being 11 cm from each wall. Dependent measures in the center were the total time and the number of entries over a 30-min period of test. The whole session was also divided in 5 periods to analyze the time spent in the center every 5 min. The overall motor activity was quantified as the total distance traveled (cm) or distance traveled in the center divided by total distance traveled.
# β-arrestin 2 = system: β-arrestin 2
# Protocol: (§1) Tissue preparation: Animals were sacrificed by cervical dislocation. Selected brain regions were dissected and placed in tubes containing RNAlater (Ambion), incubated at 4 degrees C. overnight and stored at −80 degrees C. until processing.
# (§2) Brain regions (10-20 mg) were homogenized for 20 sec at medium speed in 1.25 ml lysis/denaturation buffer (Ambion) using an Autogizer™ (Tomtec). Total RNA was isolated from 100-300 ul aliquots of the homogenate using the RNAqueous™ 96 automated kit (Ambion) according to the manufacturer's protocol. A second DNase I digestion was incorporated after elution of the RNA from the Ambion filter plate to remove residual genomic DNA. Digestion was performed for 1 hr at room temperature using DNase I™ (Invitrogen) and the buffer supplied with the enzyme. After inactivation of the DNase with EDTA and heat, the RNA was desalted with a Multiscreen™ filter plate (Millipore) and stored at −80° C. Conversion of total RNA into first strand cDNA was accomplished with Superscript II™ enzyme (Invitrogen) followed by desalting over a Multiscreen plate. Approximately 1 ug of total RNA was used for each cDNA reaction. The yield of cDNA was determined using Quant-iT Oligreen™ reagent (Invitrogen). Prior to the Oligreen assay, total RNA carried over from the cDNA reaction was hydrolyzed with NaOH and heat, followed by neutralization with Tris buffer. This treatment eliminates any contribution of the RNA to the Oligreen signal. The unknown cDNA samples were compared to a standard curve derived using a 18mer oligonucleotide. Replica cDNA plates containing 3 ng of cDNA per well were prepared using an Evolution P3™ workstation (PerkinElmer). Each animal in a given experiment was represented by one well on each plate and each plate always contained the control and treatment groups.
# (§3) Quantitative PCR (qPCR) was carried out in 25 ul reactions using Full Velocity™ enzyme (Stratagene). Plates were run on either a Stratagene MX3000P™ or an Applied Biosystems 7900 HT instrument. The cycling parameters were set based on recommendations from the enzyme manufacturer. One gene expression profile was analyzed per PCR plate and duplicate plates were run for each gene. Two housekeeping genes, cyclophilin and GAPDH, were included in the gene list and were used to normalize the expression results obtained from the other genes of interest (see data analysis section). The sequences of the primers and probes for each gene are listed in supplemental table 1. Duplicate cycle thresholds (Ct values) were obtained for each gene/region and averaged. […] After converting delta Ct values to percentage, the mean and SEM of each animal group (controls and experimental) was calculated.
# β-arrestin 1 = conditions: hypothalamus
# Protocol: as §1, §2, §3
# Giα2 = conditions: hypothalamus
# Protocol: as §1, §2, §3
# SvEv129 mice = assay: Novelty-suppressed feeding test, sham or x-irradiated animals; format: in vivo; conditions: 28 d of fluoxetine; sham animals
# Protocol: Novelty-suppressed feeding test. […] The floor was covered with ˜2 cm of wooden bedding. Twenty-four hours before behavioral testing, animals were deprived of all food in the home cage. At the time of testing, two food pellets were placed on a piece of round filter paper (12 cm diameter) positioned in the center of the box. The test began immediately after the animal was placed in a corner of the box. The latency to approach the pellet and begin feeding was recorded (maximum time, 5 min). Immediately afterward, the animal was transferred back to its home cage and the amount of food consumed in 5 min was measured. Each mouse was weighed before food deprivation and before testing to assess the percentage of body weight lost.
# In the NSF paradigm, conflicting motivations are produced by presenting a food-deprived animal with a reward (food) within the context of a novel, aversive environment. The NSF test is among the few behavioral paradigms that can differentiate chronic versus subchronic responses to antidepressant treatments, using the latency to begin eating as an index of antidepressant/anxiety-like behavior.
smiles,measurement,setting,value
CNCCC(Oc1ccc(C(F)(F)F)cc1)c1ccccc1 (stereo not shown) [fluoxetine],total number of entries in the center (Open Field),"[1]; wild-type animals, 4 weeks fluoxetine",increased
same,time spent in the center (Open Field),"[1]; wild-type animals, 4 weeks fluoxetine 18 mg/kg/day",increased
same,effect of fluoxetine on time spent in the center (Open Field),[1]; β-arrestin 2 knock out mice,abolished
same,total ambulatory distance (Open Field),[1]; β-arrestin 2 knock out mice,absence of effects
same,total number of entries in the center (Open Field),[1]; β-arrestin 2 knock out mice,absence of effects
same,β-arrestin 2 levels,"β-arrestin 2; hippocampus, fluoxetine",opposite effect
same,β-arrestin 2 expression,"β-arrestin 2; hypothalamus, fluoxetine in corticosterone-treated mice",reversed
same,β-arrestin 1 expression,β-arrestin 1,totally reversed
same,Giα2 expression,Giα2,totally reversed
same,latency to feed (NSF),SvEv129 mice,reduced latency to feed
